The source made the active and inactive calls.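 The calls were made as follows: active = MAPK inhibition above 50%; inactive = inhibition below 50%.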
System: ERK MAP kinase activity (EKAR reporter), human
Assay: blockers of ERK reporter and Cdc25C phosphorylation – TALL-104 cells, EKAR, flow cytometry, CherryPick01, mechanism study for lytic granule exocytosis inhibitor project, late-stage follow-up (AID 720668)
Details: EKAR/pCdc25C flow cytometry, PMA/thapsigargin, at 30 µM, active compounds read high

inhibition, inactive:
Cc1ccc(Nc2nc(NCc3ccco3)c3ccccc3n2)cc1 -6.4%
CCN(CC)CCCNc1ccc(-c2nnc(-c3ccc(OCC(C)C)cc3)o2)cn1 -20.8%
O=c1c2ccc(F)cc2sn1-c1ccccc1 21.5%
CCCCC[C@@H](C)N1C[C@@H](COCc2ccccc2)Oc2cc(N3CC[C@@H](N(C)C)C3)ccc2S1(=O)=O 7.3%
CC1COCC(C)N1C1=C(Cl)C(=O)c2ccccc2C1=O (configuration not stated) -52.7%
COc1ccc(N2C(=O)CC(Sc3nnc(-c4ccccc4)o3)C2=O)cc1 (configuration not stated) -4%
CC1=NOC(=O)/C1=C/c1ccc(-c2ccc(Cl)cc2)o1 16.5%
O=c1c2ccccc2sn1-c1ccccc1 -1.6%
CCCCC[C@@H](C)N1C[C@H](COCc2ccccc2)Oc2cc(N3CC[C@@H](N(C)C)C3)ccc2S1(=O)=O -5.3%
COc1ccc(-c2cc(NC=O)c3ncc(-c4ccccc4)n3c2)cc1OC -19.8%
O=C(Cn1sc2ccccc2c1=O)NC12CC3CC(CC(C3)C1)C2 29.8%
COc1ccccc1CNc1nc(NCc2ccc(C(C)C)cc2)c2sccc2n1 -9.9%
O=C(Cn1sc2ccccc2c1=O)Nc1ccc(F)cc1 4.6%
CCCCC[C@@H](C)N1C[C@@H](COCc2ccccc2)Oc2cc(N3CC[C@H](N(C)C)C3)ccc2S1(=O)=O 6.3%
CC(C)(c1ccccc1)c1ccc(OCC(O)CNC2CCN(Cc3ccccc3)CC2)cc1 (configuration not stated) -13.5%
CN(C)CCNC(=O)c1ccc(-c2cn3c(-c4ccc(Oc5ccccc5)cc4)cnc3cn2)cc1 -6.6%
COC(=O)c1c(NC(=O)c2nc3ccccc3s2)sc2c1CC(C)(C)NC2(C)C 14.4%
COc1ccc(-c2cc(NC=O)c3ncc(-c4cccc(OC)c4)n3c2)cc1 -34.2%
COc1ccc(-n2sc3ccccc3c2=O)cc1 13.3%
O=CNc1cc(-c2ccsc2)cn2c(-c3ccccc3)cnc12 -19%
Cc1ccc(S(=O)(=O)n2ccc3c(OCCOCCNCc4ccc(F)cc4)cccc32)cc1 -15.1%
O=C(CN1C(=O)/C(=C\c2cccc(Br)c2)Oc2ccccc21)NCCCN1CCOCC1 -3.6%
